Results as given in patent publication US20210015793A1, “COMPOUNDS FOR TREATING CNS- AND NEURODEGENERATIVE DISEASES” (ETH ZURICH, priority 2018, published 2021).
Entries after “also recorded” stand apart in the source; their conditions may differ.

How the values were obtained:
Tg2576 AD mice [1] = experiment: Hippocampal neuronal cell bodies by direct binding assay with [125I]-labeled anti-NeuN antibody, Tg2576 mice subjected to CUMS; format: in vivo, mouse; details: 15-month-old Tg2576 mice, 3 months of CUMS with treatment, vs untreated stressed controls
Excerpt: (§1) For a genetic model of familial AD (FAD), Tg2576 mice (Taconic Biosciences, Rensselaer, N.Y., USA) were used with neuron-specific overexpression of human APPSwe, i.e the Swedish mutation of APP695 isolated from a Swedish family with FAD featuring the double mutation K670N/M671L (Hsiao et al., Science 274, 99-103 (1996)). As a genetic model of tauopathy, the Tg-TauP301L mice (Model 2508, Taconic Biosciences, Rensselaer, N.Y., USA) with neuron-specific expression of the most common FTDP-17 (frontotemporal dementia and parkinsonism linked to chromosome 17) mutation (Lewis et al., Nature Genetics 25, 402-405 (2000)) were used. […]
(§2) Neuronal cell loss and hyperphosphorylated PHF Tau were determined in hippocampi of 15 months-old Tg2576 mice, which were treated without or with Compound-1 and Compound-4 for three months during the neurodegeneration-enhancing CUMS (chronic unpredictable mild stress) protocol. Neuronal cell loss was determined with crude homogenates of dissected hippocampi by direct binding assay with the neuron-specific [125]-labeled anti-NeuN antibody (MAB377, clone A60, EMD Millipore, Merck KGaA, Darmstadt, Germany). Similarly, the neuronal cell loss-causing PHF tau hyperphosphorylation was quantified with [125]-labeled AT8 antibody. […]

Tg2576 AD mice [2] = experiment: Hippocampal hyperphosphorylated PHF tau by direct binding assay with [125I]-labeled AT8 antibody, Tg2576 mice subjected to CUMS; format: in vivo, mouse; details: 15-month-old Tg2576 mice, 3 months of CUMS with treatment, vs untreated stressed controls
Excerpt: as §1, §2

[3] = Serum concentration by HPLC in dogs after oral dosing; format: in vivo, dog; details: for steady-state serum concentrations of Compound-1 and Compound-1F compared: 28 days once daily oral dosing, 24 h after the last dose; for oral bioavailability: oral treatment; for dog dose roughly equivalent to 8 mg/kg/day in mice (by steady-state serum concentration): mice given compound in drinking water, dogs 28 days once daily oral dosing
Method: Dog serum concentrations of Compound-1, Compound-1F and Compound-4 were determined with serum isolated from the blood of German shepherd dogs (age: 8-9 months) taken at different time points (2 h, 4 h, 6 h, 8, 10 h, 24 h) after oral drug intake. The steady-state serum concentrations of Compound-1, Compound-1F and Compound-4 were determined in mice with blood isolated at the end of the study by cardiac puncture. Serum proteins were removed by acetonitrile precipitation, and compounds were extracted by chloroform before separation on an HPLC-C18 column (Poroshell 120 EC-C18, Agilent) with an HPLC system (Agilent 1100 Series) and detection at OD 280 nm, for Compound-1 and Compound-1F. Detection of Compound-4 was performed at OD 310 nm. The same extraction method was also used to determine Compound-1F in the serum of healthy human research participants. Dog hematology and biochemical parameters were determined by the Center of Applied Analytical and Veterinary Studies, Cairo, Egypt. ECG and blood pressure were measured by Dr. Mohamed Elsaed, Electrocardiography Unit, Faculty of Veterinary Medicine, Cairo University. The study was approved by the ethical committee of the Center of Applied and Veterinary Studies, Cairo, Egypt. Clinical laboratory parameters of human research participants were determined by the Rabaa El Adaweya Medical Central Hospital, Cairo, Egypt.

[4] = dogs, oral gavage, single dose of 60 mg

Compound	hippocampal neuronal loss (anti-NeuN antibody binding) (Tg2576 AD mice [1])	hippocampal content of hyperphosphorylated PHF Tau (AT8 binding) (Tg2576 AD mice [2])	steady-state serum concentrations of Compound-1 and Compound-1F compared ([3]; dogs)	dose dependence of peak serum concentration ([3]; dogs, 28 days repeated once daily dosing, 20, 60, 200 mg/day)	time to peak serum concentration ([3]; dogs, day 28 of repeated once daily dosing, 20, 60 and 200 mg/day) [h]	peak serum concentration [3, 4] [µg/mL]	time to peak serum concentration [3, 4] [h]	time to peak serum concentration ([3]; dogs, oral gavage, single dose of 200 mg) [h]	oral bioavailability ([3]; dogs)	dog dose roughly equivalent to 8 mg/kg/day in mice (by steady-state serum concentration) [3] [mg/kg day]	pharmacokinetic profile compared to Compound-1 ([3]; dogs, oral)
O=C(C1=C(O)C(c2ccccc2)N(c2ccc3c(c2)OCO3)C1=O)C1CC1 (stereo not shown) [Compound-1, 1-(1,3-benzodioxol-5-yl)-4-(cyclopropane-carbonyl)-3-hydroxy-2-phenyl-2H-pyrrol-5-one]	retarded hippocampal neuronal loss; also recorded: significantly retarded the loss of hippocampal neurons	retarded; also recorded: significantly decreased hippocampal content of hyperphosphorylated PHF Tau	comparable	dose-dependent increase in the peak serum concentration	4	2	4	6	good oral bioavailability	~0.7	–
O=C(C1=C(O)C(c2ccc(F)cc2)N(c2ccc3c(c2)OCO3)C1=O)C1CC1 (stereo not shown) [Compound-1F, 1-(1,3-Benzodioxol-5-yl)-4-(cyclopropanecarbonyl)-2-(4-fluorophenyl)-3-hydroxy-2H-pyrrol-5-one]	retarded hippocampal neuronal loss	retarded	comparable	–	–	–	–	–	good oral bioavailability	~0.7	slower on-rate
